Results on four compounds are retold here after paper PMC9586938, “Picomolar fluorescent probes for compound affinity determination to carbonic anhydrase IX expressed in live cancer cells” (Scientific Reports, 2022).

For data set [1], the target named is T1, CAVI (Homo sapiens, UniProt P23280).
T1 construct: made in house; host or cells: E. coli
Briefly: Thermal shift assay (TSA), recombinant CAVI. Format: binding. Particulars: 37 °C, pH 7.0, observed (not intrinsic). The protocol: (§1) The binding affinities of all fluorescein-containing compounds were determined for all 12 catalytically active CA isozymes by the thermal shift assay (TSA). […] However, the SFA technique cannot determine the affinities lower than the enzyme concentration used in the assay. […] In addition, we used isothermal titration calorimetry (ITC), the standard assay to determine affinity and enthalpy of protein–ligand binding. […] Therefore, ITC was used only to determine the enthalpy of interaction and confirm the ordering of compound affinities.
(§2) All twelve catalytically active human CA isozymes were prepared recombinantly as previously described. Isozymes CAIX, CAXII, and CAXIV were the catalytic domains of the proteins[14],[38]. All isozymes were expressed in E. coli except CAIX that has been prepared in mammalian cells. The proteins were chromatographically purified on ion-exchange or benzene sulfonamide containing affinity columns. Protein MW was confirmed by mass spectrometry with 1 Da precision as predicted from gene sequence.
(§3) Compound affinities for the twelve catalytically active CA isozymes were determined by the thermal shift assay as previously described[30],[39]. Protein solutions containing 1,8-anilinonaphthalenesulfonate fluorescent probe were heated from 25 to 100 °C at a rate of one degree per minute while following the fluorescence of the probe. The temperature scanning curves provided the melting temperature Tm of the protein. The Tm has a distinct dependence on the concentration of a compound. Stronger binders shift the Tm to a greater extent than the weak binders. The Tm dependencies on compound concentration were fit to obtain the affinity Kd[40].

The target of data set [2] is T2, CAIII (Homo sapiens, UniProt P07451).
T2 construct: made in house; host or cells: E. coli
T2 sequence (P07451 whole entry): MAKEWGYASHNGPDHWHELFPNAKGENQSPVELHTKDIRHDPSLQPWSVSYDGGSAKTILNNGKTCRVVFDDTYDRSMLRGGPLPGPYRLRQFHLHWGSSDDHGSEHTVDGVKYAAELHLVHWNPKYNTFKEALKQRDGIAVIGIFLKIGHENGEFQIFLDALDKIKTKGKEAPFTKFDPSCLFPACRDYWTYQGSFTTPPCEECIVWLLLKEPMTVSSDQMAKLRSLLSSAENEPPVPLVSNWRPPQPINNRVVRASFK
Briefly: Thermal shift assay (TSA), recombinant CAIII. The data set is classed as binding. To be noted: 37 °C, pH 7.0, observed (not intrinsic). The procedure: as §1, §2, §3

The target in data set [3] is T3, CAVA (Homo sapiens, UniProt P35218).
T3 construct: made in house; host or cells: E. coli
T3 sequence (P35218 39-305): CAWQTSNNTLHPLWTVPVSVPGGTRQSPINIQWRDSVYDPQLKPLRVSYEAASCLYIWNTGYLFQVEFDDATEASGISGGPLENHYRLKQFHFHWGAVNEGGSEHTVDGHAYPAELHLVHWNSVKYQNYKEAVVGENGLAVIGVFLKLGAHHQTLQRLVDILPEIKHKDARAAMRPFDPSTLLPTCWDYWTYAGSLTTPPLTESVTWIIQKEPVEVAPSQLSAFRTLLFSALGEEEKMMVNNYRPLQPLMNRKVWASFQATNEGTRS
The data set can be described thus: Thermal shift assay (TSA), recombinant CAVA. Format: binding. To be noted: 37 °C, pH 7.0, observed (not intrinsic). The protocol:
as §1, §2, §3

For data set [4], the target named is CAIX expressed on live A549 cells (Homo sapiens, UniProt Q16790). The data set can be described thus: Competition of unlabeled compound with 10 nM GZ19-32 on hypoxic A549 cells (competitive binding model). To be noted: ratio of KdA.
Data set [5] has as its target T4, CAIV (Homo sapiens, UniProt P22748).
T4 construct: made in house; host or cells: E. coli
Briefly: Thermal shift assay (TSA), recombinant CAIV. The data set is classed as binding. Particulars: 37 °C, pH 7.0, observed (not intrinsic).

For data set [6], the target named is T5, CAXII (Homo sapiens, UniProt O43570).
T5 construct: Isozymes CAIX, CAXII, and CAXIV were the catalytic domains of the proteins; made in house; host or cells: E. coli
T5 sequence (O43570 30-289 limits assumed): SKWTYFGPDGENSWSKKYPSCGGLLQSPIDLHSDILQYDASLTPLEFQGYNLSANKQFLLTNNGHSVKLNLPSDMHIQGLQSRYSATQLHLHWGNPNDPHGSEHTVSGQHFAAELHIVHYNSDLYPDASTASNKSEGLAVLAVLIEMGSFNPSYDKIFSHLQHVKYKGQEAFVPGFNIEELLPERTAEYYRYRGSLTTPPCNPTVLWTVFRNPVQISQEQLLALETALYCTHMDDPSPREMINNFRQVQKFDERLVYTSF
Briefly: Thermal shift assay (TSA), recombinant CAXII. The data set is classed as binding. Particulars: 37 °C, pH 7.0, observed (not intrinsic). The protocol: as §1, §2, §3

For data set [7], the target named is T6, catalytic domain of recombinant human CAIX (Homo sapiens, UniProt Q16790).
T6 construct: Isozymes CAIX, CAXII, and CAXIV were the catalytic domains of the proteins; made in house; host or cells: mammalian cells
The data set can be described thus: Thermal shift assay (TSA), recombinant CAIX catalytic domain. The data set is classed as binding. Particulars: for Kd: TSA, 37 °C, pH 7.0, observed (not intrinsic), read-out: Kd CAIX.

For data set [8], the system named is HeLa CAIX-KO and normoxia-grown WT HeLa cells. Briefly: Fluorescein-labeled compound dosing to CAIX-KO and normoxia-grown HeLa cells (non-specific binding). The data set is classed as cell-based, human. Particulars: micromolar concentration range, Fig. 9B, 9C. The protocol:
(§4) HeLa cell culture was grown in 12-well plates, either under hypoxia (1% O2) or under normoxia (21% O2), for 70 to 76 h. The medium was removed. Then 200 µL of serially diluted compound (twelve twofold steps) in the FB medium, usually starting at 80 nM (80, 40, 20, …, 0 nM), was added and incubated at 37 ℃ under normoxia in the CO2 incubator for 20 min (2 or 5 min in some experiments where specified). Then the compound solution was removed and the cells were washed 3 times for 1.5–2 min with 400 µL of PBS at RT. Then 180 µL of TrypLe express enzyme (ThermoFisher) was added to each well and incubated in CO2 incubator for 5 min to 10 min until the cells deattached from the surface. After addition of 20 µL of Defined Trypsin Inhibitor solution (ThermoFisher), cells were resuspended by pipetting and 150 µL of the suspension from each well were transferred to black Thermo Scientific™ Nunc MicroWell 96-Well Optical-Bottom Plates for fluorescence and absorbance measurements. The fluorescence was recorded at 485 nm excitation and 520 nm emission wavelengths in the plate reader (Synergy HTX, BioTek). The absorbance was recorded at 650 nm to measure the optical density of the cell suspension.
(§5) The compound solution was prepared by weighing 3–5 mg of a purified compound and dissolving in DMSO at 10 mM concentration. The 1 mM compound stock in DMSO was prepared by taking 10 µL of 10 mM stock and adding to 90 µL DMSO. The 10 µM compound stock was prepared by taking 10 µL of 1 mM compound stock in DMSO and adding 990 µL of the FB medium (this stock contained 1% of DMSO). Then 80 nM compound solution was prepared by taking 10 µL of 10 µM solution and adding 1.24 mL of the FB medium and placed to the first Eppendorf tube. Then 300 µL of FB medium were added to the Eppendorf tubes 2 to 12. A serial dilution was performed by taking 300 µL of solution from tube 1 to 2, then from 2 to 3 and so on while mixing vigorously at each step. No solution was transferred to the last tube thus it contained only FB medium and no compound. Then 200 µL from 12 tubes were transferred to the 12 wells of cell culture-containing 12-well plate, starting from the lowest concentration.
This equation was fit to the dosing curves of several fluorescently-labeled ligands to both the cells grown in hypoxia and in normoxia, both to the WT and CRISPR-Cas9 CAIX knockout cells. The cells bound both the GZ19-32 and GZ20-40 ligands that differed only in the length of the linker and both contained the same head-group. […] Furthermore, the ligands that had their sulfonamide amino group substituted with the methyl completely abandoned their capability of binding CAIX in this concentration region. The binding was also abolished for the CAIX-KO HeLa cells.

In data set [9] the target is T7, CAVII (Homo sapiens, UniProt P43166).
T7 construct: made in house; host or cells: E. coli
T7 sequence (P43166 whole entry): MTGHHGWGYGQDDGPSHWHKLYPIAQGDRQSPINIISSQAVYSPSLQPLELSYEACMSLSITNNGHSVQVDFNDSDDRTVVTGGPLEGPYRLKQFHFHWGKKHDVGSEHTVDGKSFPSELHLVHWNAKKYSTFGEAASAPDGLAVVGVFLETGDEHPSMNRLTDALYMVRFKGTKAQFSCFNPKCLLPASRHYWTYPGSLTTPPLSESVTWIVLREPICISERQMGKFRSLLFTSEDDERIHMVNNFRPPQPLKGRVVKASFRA
The data set can be described thus: Thermal shift assay (TSA), recombinant CAVII. The data set is classed as binding. To be noted: 37 °C, pH 7.0, observed (not intrinsic).

In data set [10] the target is T8, CAIX expressed on HeLa cells (Homo sapiens, UniProt Q16790).
T8 construct: recombinant CAIX and endogenous CAIX expressed on the cell surface; endogenous in cells; host or cells: HeLa (WT), grown under hypoxia (1% O2)
Briefly: Fluorescein-labeled compound dosing to hypoxia-grown WT HeLa cells (Morrison single-site model). Format: cell-based. To be noted: same conditions as GZ19-32, up to about 100 nM. The procedure:
as §4, §5
Application of fluorescently labeled ligand GZ19-32 to cancer cells expressing CAIX will stain the cells in dose-dependent manner. The fraction of saturation increases from 0 to 1. The fraction of bound GZ19-32 (f) is equal to the molar concentration of bound GZ19-32 per molar concentration of total available CAIX, the so-called total protein Pt . f=GZ19-32bound/Pt
Upon GZ19-32 dosing, the observed fluorescence signal F can be modeled to change from the minimal background signal ( Fmin ) to maximal saturated value ( Fmax ): F=Fmin+Fmax-Fminf […]

In data set [11] the target is T9, CAII (Homo sapiens, UniProt P00918).
T9 construct: made in house; host or cells: E. coli
Briefly: Thermal shift assay (TSA), recombinant CAII. The data set is classed as binding. To be noted: 37 °C, pH 7.0, observed (not intrinsic). The protocol: as §1, §2, §3

For data set [12], the target named is T10, CAI (Homo sapiens, UniProt P00915).
T10 construct: made in house; host or cells: E. coli
T10 sequence (P00915 whole entry): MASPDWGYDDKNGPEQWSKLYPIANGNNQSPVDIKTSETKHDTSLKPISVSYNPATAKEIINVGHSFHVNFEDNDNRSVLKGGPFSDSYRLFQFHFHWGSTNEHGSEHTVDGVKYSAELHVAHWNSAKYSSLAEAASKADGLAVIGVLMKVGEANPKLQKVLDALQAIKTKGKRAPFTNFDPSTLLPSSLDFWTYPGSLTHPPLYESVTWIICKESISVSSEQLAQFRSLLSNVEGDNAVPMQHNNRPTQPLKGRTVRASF
Briefly: Thermal shift assay (TSA), recombinant CAI. The data set is classed as binding. Particulars: 37 °C, pH 7.0, observed (not intrinsic).

In data set [13] the target is T11, CAVB (Homo sapiens, UniProt Q9Y2D0).
T11 construct: made in house; host or cells: E. coli
T11 sequence (Q9Y2D0 34-317): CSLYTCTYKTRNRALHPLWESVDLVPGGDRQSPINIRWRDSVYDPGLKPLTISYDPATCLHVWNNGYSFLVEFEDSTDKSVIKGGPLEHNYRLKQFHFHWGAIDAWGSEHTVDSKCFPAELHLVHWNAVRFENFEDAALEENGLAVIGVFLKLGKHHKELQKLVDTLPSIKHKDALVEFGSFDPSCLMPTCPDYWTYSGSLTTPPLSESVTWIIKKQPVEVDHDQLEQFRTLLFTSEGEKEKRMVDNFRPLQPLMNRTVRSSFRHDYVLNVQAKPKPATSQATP
Briefly: Thermal shift assay (TSA), recombinant CAVB. Format: binding. Particulars: 37 °C, pH 7.0, observed (not intrinsic).

The target in data set [14] is T12, CAXIII (Homo sapiens, UniProt Q8N1Q1).
T12 construct: made in house; host or cells: E. coli
T12 sequence (Q8N1Q1 whole entry): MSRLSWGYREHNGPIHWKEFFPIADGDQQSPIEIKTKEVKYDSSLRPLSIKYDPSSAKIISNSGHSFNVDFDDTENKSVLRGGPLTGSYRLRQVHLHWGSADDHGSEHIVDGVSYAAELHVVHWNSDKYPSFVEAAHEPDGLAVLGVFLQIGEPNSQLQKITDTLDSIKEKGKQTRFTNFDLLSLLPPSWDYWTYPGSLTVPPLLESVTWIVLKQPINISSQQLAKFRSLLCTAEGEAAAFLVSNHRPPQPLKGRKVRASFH
The data set can be described thus: Thermal shift assay (TSA), recombinant CAXIII. The data set is classed as binding. Particulars: 37 °C, pH 7.0, observed (not intrinsic).

In data set [15] the target is T13, CAXIV (Homo sapiens, UniProt Q9ULX7).
T13 construct: Isozymes CAIX, CAXII, and CAXIV were the catalytic domains of the proteins; made in house; host or cells: E. coli
T13 sequence (Q9ULX7 20-278 limits assumed): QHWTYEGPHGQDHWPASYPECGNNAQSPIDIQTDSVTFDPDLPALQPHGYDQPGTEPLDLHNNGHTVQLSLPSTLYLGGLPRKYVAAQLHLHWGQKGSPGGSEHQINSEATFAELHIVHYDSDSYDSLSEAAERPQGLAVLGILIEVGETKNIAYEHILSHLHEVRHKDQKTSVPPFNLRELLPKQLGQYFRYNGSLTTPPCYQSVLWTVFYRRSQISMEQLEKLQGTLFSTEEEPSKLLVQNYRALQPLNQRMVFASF
The data set can be described thus: Thermal shift assay (TSA), recombinant CAXIV. The data set is classed as binding. Particulars: 37 °C, pH 7.0, observed (not intrinsic).

Molecules are shown by their SMILES.

In general, Kd refers to the concentration at which binding is half-saturated. By melting point is commonly meant the temperature of the solid-liquid transition.

T4 sequence (P22748 19-312): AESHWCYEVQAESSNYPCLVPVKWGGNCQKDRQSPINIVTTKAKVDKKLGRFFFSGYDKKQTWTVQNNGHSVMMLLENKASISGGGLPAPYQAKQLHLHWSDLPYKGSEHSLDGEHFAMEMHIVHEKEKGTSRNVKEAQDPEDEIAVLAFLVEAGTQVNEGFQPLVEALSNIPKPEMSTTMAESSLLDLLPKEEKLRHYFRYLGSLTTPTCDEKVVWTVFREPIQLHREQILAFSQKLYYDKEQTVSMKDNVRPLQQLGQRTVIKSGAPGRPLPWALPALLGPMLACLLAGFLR
T1 sequence (P23280 18-308): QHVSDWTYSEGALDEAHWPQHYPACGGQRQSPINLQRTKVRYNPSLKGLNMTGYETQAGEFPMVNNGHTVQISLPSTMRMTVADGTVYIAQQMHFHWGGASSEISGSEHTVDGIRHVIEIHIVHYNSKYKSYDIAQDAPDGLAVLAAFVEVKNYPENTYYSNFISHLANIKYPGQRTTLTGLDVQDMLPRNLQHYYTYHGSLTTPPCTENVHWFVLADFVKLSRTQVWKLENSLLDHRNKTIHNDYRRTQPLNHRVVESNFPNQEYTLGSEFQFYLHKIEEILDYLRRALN

Regarding `NS(=O)(=O)c1ccc(NC(=O)Nc2ccc(F)cc2)cc1` [SLC-0111, 4-(3-(4-fluorophenyl)ureido)benzenesulfonamide, reference compound], the values for the Kd in data set [1], in data set [2] and in data set [3] were 10000 nM, > 200000 nM and 6000 nM, respectively. The “weaker binding to CAIX in A549 than HeLa cells” value in data set [4] amounted to 6 times.
The compound `NS(=O)(=O)c1c(F)c(F)c(S(=O)(=O)CCC(=O)Nc2ccc3c(c2)C(=O)OC32c3ccc(O)cc3Oc3cc(O)ccc32)c(F)c1F` [GZ19-31, N-(3',6'-dihydroxy-3-oxo-3H-spiro[isobenzofuran-1,9'-xanthen]-5-yl)-3-((2,3,5,6-tetrafluoro-4-sulfamoylphenyl)sulfonyl)propanamide] registered a melting point of 175 to 176 °C. Besides, the Kd in data set [1] came out at 140 nM. Also, the Kd in data set [2] was 2500 nM. For the same compound, the Kd in [5] was determined as 140 nM. For the same compound, the Kd in data set [6] was found to be 40 nM. The Kd in data set [3] is 29 nM. Further, the dissociation constant (Kd) in data set [7] was determined as 1.7 nM. Further, the “binding to CAIX by TSA (in words)” value in data set [7] (recombinant CAIX) is recorded as “medium affinity (nM range)”. Also, the “non-specific binding to cells” value in data set [8] is reported as “bound cells in the micromolar concentration range”. Besides, the Kd in [9] turned out to be 2 nM. In addition, the “binding to hypoxia-grown HeLa cells in the nM concentration region” value in data set [10] is given as “did not bind”. Besides, the Kd in data set [11] was 1.7 nM. For the same compound, the Kd in data set [12] is 0.005 nM. In data set [13], the Kd turned out to be 20 nM. Also, the Kd in [14] was 1.7 nM. The Kd in data set [15] was determined as 25 nM.
Consider `NS(=O)(=O)c1c(F)c(F)c(S(=O)(=O)CCC(=O)NCCCC(=O)Nc2ccc3c(c2)C(=O)OC32c3ccc(O)cc3Oc3cc(O)ccc32)c(NC2CCCCCCC2)c1F` [GZ20-40, 4-(3-((2-(cyclooctylamino)-3,5,6-trifluoro-4-sulfamoylphenyl)sulfonyl)propanamido)-N-(3',6'-dihydroxy-3-oxo-3H-spiro[isobenzofuran-1,9'-xanthen]-5-yl)butanamide], for which the melting point was 180 to 181 °C. In [1], the Kd was 250 nM. For the same compound, the Kd in [2] turned out to be 6700 nM. In data set [5], the Kd was 500 nM. Moreover, in [6], the Kd stood at 7 nM. In addition, the Kd in data set [3] came out at 1000 nM. In addition, the Kd in data set [7] worked out at 0.01 nM. Moreover, the Kd in [9] is 7 nM. Moreover, the Kd in data set [11] was 200 nM. Further, the Kd in data set [12] was found to be 500 nM. In data set [13], the Kd was 33 nM. Also, in data set [14], the Kd was determined as 1 nM. Further, in data set [15], the Kd was 2.5 nM.
Consider `CS(=O)(=O)c1c(F)c(F)c(SCCC(=O)Nc2ccc3c(c2)C(=O)OC32c3ccc(O)cc3Oc3cc(O)ccc32)c(F)c1F` [GZ19-33, N-(3',6'-dihydroxy-3-oxo-3H-spiro[isobenzofuran-1,9'-xanthen]-5-yl)-3-((2,3,5,6-tetrafluoro-4-(methylsulfonyl)phenyl)thio)propanamide], for which the melting point lay in the range of 181 to 182 °C. Moreover, in [1], the Kd was > 100000 nM. Besides, the Kd in data set [2] was > 100000 nM. In data set [5], the Kd is > 100000 nM. The Kd in data set [6] was > 100000 nM. In addition, the Kd in data set [3] is > 100000 nM. For the same compound, the Kd in [7] is > 100000 nM. The “non-specific binding to cells” value in data set [8] was “bound cells in the micromolar concentration range”. The Kd in [9] is > 100000 nM. Besides, the Kd in [11] is > 100000 nM. Besides, in data set [12], the Kd was > 100000 nM. Further, the Kd in data set [13] is > 100000 nM. In data set [14], the Kd was > 100000 nM. Further, the Kd in data set [15] was > 100000 nM.
